Ends that are not written are not given here.
Key:
[1] = test system: GFAP-positive astrocytes; experiment: astrocyte proliferation (GFAP/BrdU) in thalamocortical OTC cell bridge; format: cell-based, rat
Procedure: FIG. 12 depicts the specificity of the proliferation induced by NRP-1 (SEQ ID NO: 2). We tested the proliferation status of astroglia by monitoring the expression patterns for GFAP and BrdU-incorporation. Thalamocortical OTCs were supplemented with 3 nM highly purified migration-inducing factor and fixed following 4 days in vitro. FIG. 12A (left panel) depicts non-proliferative GFAP-positive astrocytes (white arrows) accompanying the neuronal migration stream, with a subpopulation of astrocytes of proliferative character (FIG. 12B, right panel; white arrow heads). Approximately 30% of the astrocytes in close vicinity to the neuronal migration stream were of proliferative character. Bar: 50 μm.
We also investigated the effects of NRP-1 (SEQ ID NO:2) on the induction of proliferation within astrocytes in a qualitative way. […] Therefore we looked only at the newly formed cell bridge between the thalamic and cortical tissue 4 days after NRP administration.

[2] = test system: thalamocortical OTCs; experiment: thalamocortical OTC neuronal migration assay (cell bridge / cell chain); format: cell-based, rat
Description: We developed a new assay system for identifying NRP having migration-inducing activity. The assay system was used following guidelines approved by the Gesundheitsamt Magdeburg animal ethics committee. Newborn Long Evans rats (P0) were killed by decapitation, and neural tissues were used for preparation of organotypic cultures (OTCs). Neocortical tissue (areas 17-18 according to the Paxinos rat atlas of the developing rat brain) and thalamic tissue from the dorsal thalamus (visual areas) were extracted. These areas represent the visual axis. The dorsal thalamus was accessed by an intersection cut to remove the hypothalamus. Subsequently, the thalamus was sliced frontally using a McIllwain tissue chopper into 350 μm thick slices. Using a dissecting microscope, the habenula nucleus served as a landmark to select only dorsal thalamic areas. Cortical tissues were cut using two sagittal and two frontal intersections in order to obtain areas 17-18 of the occipital cortex. Before the last frontal cut was made, the hippocampal formation was removed. The cortical tissues were sliced by a Mclllwain tissue chopper into 350 μm thick frontal slices and was incubated in Gey's balanced salt solution (GBSS) plus 0.65% D(+)glucose, and tissuesswere kept at 4° C. for at least 30-40 minutes for recovery.
For each assay, two slices of tissue, one cortical and one thalamic, were arranged at a distance at least about 3 mm from each other on a glass substrate (e.g., a cover slip; FIG. 1). The thalamus was oriented with the habenula nucleus facing cortical layer VI. The tissues were adhered to the substrate using a plasma clot (10 μl chicken plasma (Cocalico) coagulated with 10 μl thrombin (25 U/ml, ICN) and the tissues were subsequently cultured (cultivated) at 36° C. in a roller tube incubator as organotypic cultures using 2/4 BME/¼ HBSS (Invitrogen) medium supplemented with 25% heat-inactivated horse serum (Gaehwiler, 1981) plus 2 mM L0glutamine and 0.65% D-glucose. A 712.5 μl sample of prepared medium was supplemented with 37.5 μl of purified rat NRP-1 (SEQ ID NO:2) (in concentrated or diluted form) in 0.01 M sodium phosphate (pH 7.3) or phosphate alone (control). For the experiments using 600 ng/ml NRP-1, the peptide was concentrated 4 times by speed vacuum centrifugation. The medium containing NRP was changed every three days. After each study was completed, the tissues were fixed using conventional fixatives, and migrating neurons were analysed by immunocytochemistry.
Thus, any observations of neurite outgrowths or interconnecting cell bridges are due to the influence of factors added to the culture medium. […] Thus, in certain embodiments of this invention, NRPs can be identified and/or quantified. In other embodiments, NRPs amounts can be standardized, forming a basis for therapeutic application of NRPs to treat neurological diseases or conditions.
Migration of the thalamic neurons was determined after 3 days of co-culture in the presence of NRP. The migration distances were measured by a micrometer scaled-microscopic ocular, beginning from the tissue margin of the migrating cell stream. As a threshold value for the formation of a migrating cell chain was considered to be a number of at least 5 interconnected neurons. For the determination of the dose-response curve, the longest distance of a migrated neuron from the thalamic tissue margin was measured. Results are given as mean values+/− standard deviation.

[3] = test system: mouse neural stem cells; experiment: haptotactic migration assay, mouse neural stem cells; format: cell-based
Procedure: NRPs were tested for migration-inducing/chemoattractive activity on mouse neural stem cells, EGF-dependent immortalized mouse neural stem cell line MEB5 and wild-type PC-12 cells in a haptotactic migration assay as described below.
Initial NRP Coating. Control wells of Transwell plates (Coming) with 12 μm pore size were coated in 1.5 ml of the BSA/PBS vehicle. Remaining plates were coated using various concentrations of NRPs ranging between 1-100 ng/ml (prepared in PBS containing 10 ug/ml BSA). The plates were then incubated at 37° C. for 1 hr to coat. Wells were then rinsed 2× with 1 ml sterile PBS.
Laminin ([…]) for MEB-5 cells, PDL (50 μg/ml)+Matrigel for mouse primary stem cells and fibronectin (25 ug/ml)+matrigel for PC-12 cells were used as extracellular matrix (ECM) coating for the cells. All ECM compounds were diluted in PBS. 1.5 ml of the ECM per well was incubated for 2 hrs at room temperature. The wells were then rinsed once with Iml serum-free media (e.g. NB/B27) followed by 1 ml PBS wash.
A 5 ug/mL PDL/PLL mixture (in PBS) was used to coat inserts. Subsequently the inserts were rinsed with MilliQ water.
Transferring to Media and Cell Seeding: Appropriate medium (MEB-5 cells: DMEM-high glucose+N2 (growth medium supplement from Invitrogen)+10 ng/biotin+2 mM L-glutamine, primary stem cells: NSA-medium from Euroclone and for PC-12 cells: NB/B27 medium) was transferred into the 12-well plates. […] Plates were fixed at 1-2 days in vitro (DIV).
Fixation: Inserts were discarded and wells fixed in successive dilutions of PFA (0.4, 1.2, 3 and 4%) for 3-5min in each dilution. […] The wells were rinsed and stored in PBS until counting.
A haptotactic migration assay was performed according to the description of Example 10 using rat NRP-9SD (SEQ ID NO:34) (4 nM) and mouse NRP-7SW (SEQ ID NO:24) (0.4 nM) as attractants in a Boyden chamber

Substance | astroglial division [1] | astrocytes in close vicinity to the neuronal migration stream of proliferative character ([1]; 3 nM, 4 days in vitro) | concentration at which neuronal migration was clearly detected ([2]; 2 ng/ml = 1 nM) [ng/mL] | length of cell bridge between the thalamic and cortical tissues ([2]; 6 ng/ml (3 nM)) [μm] | concentrations at which neuronal migration was not increased ([2]; 10-30 nM) [ng/mL] | interconnecting neurite network formed, time after cultivation start ([2]; NRP-1 supplemented co-cultures) [h] | concentration producing the longest cell chain ([2]; dose-response 2-600 ng/ml, 6 ng/ml = 3 nM) [ng/mL] | concentration producing the greatest effect (migrating cell chain) ([2]; thalamocortical OTCs) [nM] | more NSCs attracted to the culture dish bottom ([3]; 0.4 nM) [fold] | more E-14 cell density compared with BSA-vehicle ([3]; 10 ng/ml coating, 400,000 cells) [%] | potency relative to SDF-1 ([3]; SDF-1 100 nM vs NRP-7SW 0.2 nM)
NRP-1: rat 16 amino acid neural regeneration peptide purified from hippocampal OTC supernatant, Tyr Asp Pro Glu ... Cys His-NH2 (YDPEAASAPGSGNPCH-NH2) | does not induce astroglial division | Approximately 30% | 2 | 2500±240 | 20 to 60 | ≤ 36 | 6 | 3 | – | – | –
SEPEARRAPGRKGGVVCASLAADW-NH2 [NRP-7 segment SW, 24-mer form of mouse NRP-7] | – | – | – | – | – | – | – | – | 2 | 35 | about 500 times

Reference: patent publication US7563862B2, “Neural regeneration peptides and methods for their use in treatment of brain damage” (Neuren Pharmaceuticals Limited, priority 2001, dated 2009)
